Laboratory results: US20040106681A1, “Dosage escalation and divided daily dose of anti-depressants to treat neurological disorders” (priority 2002, published 2004)
Counter-ions that a name gives are not always drawn.

Legend:
[1] = swim stress test, hot plate response latency (thermal nociception threshold); assay type: in vivo, Sprague-Dawley rats
Procedure: (§1) The treatment groups of rats were the following: (1) stressed—forced swimming in 20 cm of water; (2) sham—swimming in 2-3 cm of water; (3) naive—left undisturbed in cage.
(§2) The rats were tested for thermal nociception threshold by hot plate response latency (in seconds). The rats were tested for muscle hyperalgesia by measuring grip strength (in kg) by algometer.
(§3) Data on hot plate response latency and grip strength was acquired on days 7 and 11.

[2] = swim stress test, grip strength (muscle hyperalgesia); assay type: in vivo, Sprague-Dawley rats
Procedure: as §1, §2, §3

[3] = Example 1 gradual dose escalation study in fibromyalgia; assay type: in vivo, human; details: out of approximately 70 treated; weekly escalation 25, 50, 100, 200 mg daily
Text: This study was undertaken to characterize the efficacy of milnacipran in treatment of fibromyalgia syndrome (FMS). A secondary objective was to evaluate the relationship between daily dose administered, frequency of dosing, and efficacy in treatment of FMS. […] In this study, daily dosages were gradually escalated.
Subjects who met the 1990 ACR criteria for fibromyalgia syndrome were eligible for enrollment. Patients recorded baseline symptoms for the first two weeks after washing off anti-depressants, hypnotics and certain other drugs that potentially could interfere with efficacy measurements. […] If the patient tolerated this dosage, they were stepped up to a 50 mg daily dosage for week two, 100 mg for week three, and 200 mg for week four, or a matching placebo. If dose-limiting toxicities were encountered during any given week, the patient was stepped down to the previous week's dosage and maintained at that dosage for the remainder of the study. Subjects continued to take their maximum tolerated dose (up to 200 mg) for an additional 8 weeks. Patients may receive a total of 12 weeks of medication. Dose-limited toxicity is defined as the occurrence of a drug-related grade 3-4 adverse event.
Efficacy was measured using FMS status assessments prior to receiving the first dose and during monthly clinic visits. […]

[4] = Example 2 12-week randomized, double-blind placebo-controlled dose escalation monotherapy trial in FMS; assay type: in vivo, human; details: for Intolerance (dose escalation failures, number of patients): 36 total patients
Procedure: After an initial period when patients were washed off pain medication, centrally acting stimulants, antidepressants and sedative-hypnotics, a two-week baseline period was begun. […] All patients were escalated over a 4-week period in weekly steps from 25 mg daily, to 50, 100, and finally 200 mg daily, or until dose-limiting toxicity (DLT) was evident. The presence of DLT was evaluated by the study center each week prior to authorizing the patient to step up to the next higher dosage. In the event that DLT was evident, the patient was stabilized at the previously well-tolerated dosage, and remained on this dose for eight weeks at stable dose therapy. Patients who successfully reached the 200 mg daily dose were also then treated for an additional 8 weeks at that dose.
At any give dose level, milnacipran QD patients would receive the full dose of milnacipran in the morning and receive placebo at night. Milnacipran BID patients would receive the same total amount in a split dose given morning and evening. During the study, patents were asked to carry an electronic diary and record pain, fatigue, sleep, and functional information. The custom designed diary captured spontaneous pain data in several ways, including
(1) random daily prompts (the device notified the patient to record their current level of pain 4-5 times per day);
(2) a morning daily prompt querying about the previous 24-hours' pain;
(3) a Friday night weekly report asking about the patient's average pain for the past week.
The electronic assessments were supplemented with traditional pain, mood, and quality of life inventories during clinic visits. The diaries implemented an electronic version of the Gracely anchored logarithmic pain scale. This scale asks patients to choose between “extremely intense,” “very intense,” “intense,” “strong,” “slightly intense,” “barely strong,” “moderate,” “mild,” “very mild,” “weak,” “very weak,” “faint,” and “no pain” sensation to describe their pain.
During the 4th, 8th, and 12th week of treatment, patients visited the clinic, where a number of standard outcome measures including the SF-36, the McGill pain questionnaire, the Beck, the STPI, the fibromyalgia impact questionnaire, and several pain measures were administered. Safety information was also collected at these clinic visits.
The primary endpoint was defined as the change in pain score from baseline to endpoint based on pain scores collected on the patient electronic diary (PED). Endpoint was defined as week twelve for assessments with a single value (such as clinic measures) or the average of scores at weeks 11 and 12 for diary-based outcomes. “Responders” were defined as those patients an improvement in pain score of at least 30%.

[5] = pretreatment; repeatedly stressed rats; cited from earlier work
[6] = pretreatment, 10 or 30 mg/kg/day IP QD days 1-11, swim stress days 8-10
[7] = treatment after swim stress, drug days 5-10, swim stress days 2-4

SMILES | swim stress-induced reductions in hot plate latency [1, 6] | swim stress-induced reductions in hot plate response latency [1, 7] | stress-induced reduction in grip strength [2, 6] | reduction in grip strength caused by repeated forced swim stress [2, 7] | patients who failed to tolerate 200 mg/day [3] | patient global pain score, mean value ([4]; 1-7 scale (1 very much improved, 4 unchanged, 7 very much worse), endpoint, 38 MIL patients, QD and BID pooled) | % Dose Intolerance ([4]; BID dosing) [%] | Intolerance (dose escalation failures, number of patients) ([4]; BID dosing) | difference in Beck scores at endpoint versus placebo ([4]; FMS patients meeting definition of MDE, pooled milnacipran groups, p=0.03) | daily sleep quality scores, improvement versus placebo ([4]; QD and BID, 12-week treatment) | % Dose Intolerance ([4]; QD dosing) [%] | Intolerance (dose escalation failures, number of patients) ([4]; QD dosing) | worsening of sleep quality ([4]; in vivo) | patient electronic diary (PED) pain scores of responders ([4]; milnacipran BID, weeks 2-6, dose escalation) | 24-hour daily pain reported scores, BID versus QD ([4]; throughout 12-week treatment) | development of cutaneous hyperalgesia [5]
CCN(CC)C(=O)[C@@]1(c2ccccc2)C[C@H]1CN (racemic) [milnacipran, (±)-cis-2-(aminomethyl)-N,N-diethyl-1-phenylcyclopropanecarboxamide hydrochloride] | not prevented | did not reverse | prevented | did reverse | 9 | 2.3 | 6 | 2 | significant | No significant improvement | 19 | 7 | no worsening | improvement | BID dosing was more effective than QD dosing | –
CN(C)CCCN1c2ccccc2CCc2ccc(Cl)cc21 [clormipramine] | – | – | – | – | – | – | – | – | – | – | – | – | – | – | – | prevent the development of cutaneous hyperalgesia
CNCCC(Oc1ccc(C(F)(F)F)cc1)c1ccccc1.Cl (racemic) [fluoxetine, (±)-N-methyl-3-phenyl-3-[(α,α,α-trifluoro-p-tolyl)oxy]propylamine hydrochloride] | – | – | – | – | – | – | – | – | – | – | – | – | – | – | – | prevent the development of cutaneous hyperalgesia
